Data set [1] is described as follows: molar enthalpy of vaporization or sublimation. The following applies: 298.15 K; Crystal; drop (calvet) calorimetry.
For data set [2] the following is noted: Crystal; for vapor or sublimation pressure: Calculated from knudsen effusion weight loss.

Where “and” joins values, the source holds several entries; their conditions need not be identical. Equal values may be shown once. ± gives the expanded uncertainty stated by the source.

Take `Oc1ccc(Br)cc1Br` [2,4-dibromophenol]: the molar enthalpy in data set [1] is 19.4 ± 0.717 kcal/mol.
With `Oc1c(Br)cccc1Br` [2,6-dibromophenol], the molar enthalpy in data set [1] was 19.9 ± 0.717 kcal/mol.
The vapor or sublimation pressure is the pressure of vapour in equilibrium with the condensed phase. As for `Oc1cc(Br)cc(Br)c1` [3,5-dibromophenol], the “molar enthalpy of sublimation” value in data set [2] (298.15 K, drop (calvet) calorimetry) turned out to be 22.5 ± 0.86 kcal/mol. The “vapor or sublimation pressure” value in data set [2] (299.19 K) is 0.00012 ± 6e-06 kPa and 0.000118 ± 6e-06 kPa and 0.000117 ± 6e-06 kPa; in data set [2] (301.19 K), 0.000157 ± 8e-06 kPa and 0.000146 ± 7e-06 kPa and 0.000151 ± 8e-06 kPa; in data set [2] (303.2 K), 0.000196 ± 1e-05 kPa and 0.000184 ± 9e-06 kPa and 0.000189 ± 9e-06 kPa; in data set [2] (305.11 K), 0.000244 ± 1.2e-05 kPa and 0.000242 ± 1.2e-05 kPa and 0.000241 ± 1.2e-05 kPa; in data set [2] (307.18 K), 0.000325 ± 1.6e-05 kPa and 0.000315 ± 1.6e-05 kPa and 0.000317 ± 1.6e-05 kPa; in data set [2] (309.11 K) it was 0.000407 ± 2e-05 kPa and 0.000414 ± 2.1e-05 kPa and 0.000389 ± 1.9e-05 kPa. Moreover, the “vapor or sublimation pressure” value in data set [2] (311.13 K) was 0.000502 ± 2.5e-05 kPa and 0.000501 ± 2.5e-05 kPa and 0.000493 ± 2.5e-05 kPa; in data set [2] (313.19 K), 0.000663 ± 3.3e-05 kPa and 0.000629 ± 3.2e-05 kPa and 0.00065 ± 3.3e-05 kPa; in data set [2] (315.21 K), 0.000813 ± 4.1e-05 kPa and 0.000838 ± 4.2e-05 kPa and 0.000801 ± 4e-05 kPa; in data set [2] (317.12 K), 0.001011 ± 0.0001 kPa and 0.001023 ± 0.0001 kPa and 0.000993 ± 5e-05 kPa.
